This is an account of results in patent US20210024634A1, “METHODS FOR PREDICTING AND ENHANCING THERAPEUTIC BENEFIT FROM CHECKPOINT INHIBITORS IN CANCER” (The Brigham and Women's Hospital, Inc., priority 2018, published 2021).

In one assay the test system is CD200. Kind of assay: qPCR of CD200 RNA levels in melanoma cell lines after MEK-inhibitor treatment. Conditions: panel of melanoma cell lines, 24 h, 100 nM. The format is cell-based. The method, then:
FIGS. 11A-C. 11A. CD200 decrease in melanomas after MEK-inhibitor treatment, but not in carcinomas (GSE10087). 11B. […] 11C. The pREP4-CD200 reporter recapitulates changes in response to MEK-inhibitor (24 h; 100 nM). Significance as * p<0.05: ** p<0.01, based on 2-sample, 2-tailed t-test. Because CD200 has been identified as regulated by MAPK-signaling in melanoma cells, a pathway which is frequently deregulated by BRAF(V600E) function, we wanted to assure that this mode of regulation holds true. To this end, we analyzed publicly available data (GSE10087) on MEK-inhibitor treatment across a cohort of carcinoma and melanoma cell lines (FIG. 11A), measured CD200 levels by qPCR following MEK inhibition in a cohort of our melanoma cell lines (FIG. 11B), and initial reporter assays (FIG. 11C). […] Using qPCR, we measured the effect of MEK-inhibitor treatment on CD200 RNA levels across our panel of melanoma cell lines (see FIG. 11B), using 24 h treatment with PD0325901 [100 nM].
On the technique in general: Real-time PCR tracks product formation cycle by cycle.

Assay [1] concerns CD200 promoter (pREP4-CD200 reporter). The experiment in a line: pREP4-CD200 reporter assay. The format is cell-based, human. Conditions: 24 h; 100 nM. The method, then: FIGS. 11A-C. 11A. CD200 decrease in melanomas after MEK-inhibitor treatment, but not in carcinomas (GSE10087). 11B. […] 11C. The pREP4-CD200 reporter recapitulates changes in response to MEK-inhibitor (24 h; 100 nM). Significance as * p<0.05: ** p<0.01, based on 2-sample, 2-tailed t-test. The region next to the CD200 transcription start drives basal activity. We have therefore amplified an 850 bp fragment upstream of the CD200 start codon, and cloned it into an EBNA-carrying vector (pREP4-LUC/hygromycin [50]) that remains episomal and replicates within human cells and allows nucleosome deposition to form chromatin. Because CD200 has been identified as regulated by MAPK-signaling in melanoma cells, a pathway which is frequently deregulated by BRAF(V600E) function, we wanted to assure that this mode of regulation holds true. To this end, we analyzed publicly available data (GSE10087) on MEK-inhibitor treatment across a cohort of carcinoma and melanoma cell lines (FIG. 11A), measured CD200 levels by qPCR following MEK inhibition in a cohort of our melanoma cell lines (FIG. 11B), and initial reporter assays (FIG. 11C).
On the technique in general: Reporter assays use an easily measured gene product as a stand-in for the process of interest.

“Also recorded” adds a separate entry of the source.

In the case of `O=C(NOC[C@H](O)CO)c1ccc(F)c(F)c1Nc1ccc(I)cc1F` [PD0325901], the “CD200 RNA levels” value in the assay with CD200 was “consistently are reduced; also recorded: consistent downregulation of CD200 levels; also recorded: Consistent CD200 decrease”. For the same compound, the pREP4-CD200 reporter response result in assay [1] was “parallels these responses”.
